Experimental data from patent US20220202832A1, “ALLOPREGNANOLONE COMPOSITIONS AND USES THEREOF” (The Regents of the University of California, priority 2019, published 2022).
“Also recorded” adds a separate entry of the source. Where two headings read alike, the source gives them in different places.

Columns and labels:
[1] = test system: bicuculline-induced seizures (seizure threshold); assay: intravenous bicuculline threshold test; type: in vivo, mice; details: intranasal 16 mg/kg; 10 min
Experimental: (§1) The thresholds for various behavioral seizure stages induced by the PTZ and bicuculine were determined by infusing the convulsant drugs via a 27-gauge, 0.75-inch “butterfly” needle inserted into the lateral tail vein. PTZ (10 mg/ml) and bicuculline (0.1 mg/ml) were infused IV at a constant rate of 0.5 ml/min using a 5-ml syringe (BD Biosciences, Franklin Lakes, N.J.) mounted on an infusion pump (Model ‘11’ Plus Syringe Pump; Harvard Apparatus, Holliston, Mass.). The syringe was connected to the needle by polyethylene tubing. The infusion was stopped at 3 min or at the onset of tonic extension, whichever occurred first. The time to occurrence (“infusion duration”) to the following endpoints from the start of the convulsant infusion were determined: (1) the first myoclonic jerk; (2) the onset of generalized clonus; and (3) the onset of tonic extension. Infusion duration values represent the time from the start of the convulsant infusion to the onset of the endpoint. The threshold value (mg/kg) for each endpoint was determined according to the following formula: (infusion duration [s]×infusion rate [ml/min]×convulant concentration [10 mg/ml or 0.1 mg/ml]×1000)/(60 s×body weight of mouse [g]).

[2] = test system: PTZ-induced seizures (seizure threshold); assay: timed intravenous PTZ seizure threshold test; type: in vivo, mice; details: for effect on seizure threshold parameters: Example 2; for elevation in thresholds to the three seizure endpoints: intranasal 1 mg/kg, compared with allopregnanolone 16 mg/kg
Experimental: as §1

righting reflex of mice = assay: loss of righting reflex test; type: in vivo; details: for loss of righting reflex (sedation), in words: 10 min to 30 min after administration
Experimental: Time course of loss of righting reflex following intranasal allopregnanolone (16 mg/kg) and intramuscular allopregnanolone (16 mg/kg). Loss of righting reflex is a nonnoxious behavioral paradigm that indicates loss of consciousness (hypnosis). […] Intranasal delivery of alloprepregnanolone according to the methods described herein avoids the adverse effects on behavior associated with intramuscular bolus administration.
For the test, the mouse was placed on its back on a tabletop.

[3] = plasma pharmacokinetics after intranasal or intramuscular dosing
Experimental: Allopregnanolone (16 mg/mL in 40% Captisol® in 0.9% saline) was administered intranasally at a total dose of 10 mg/kg. 2-3 microliters of solution was administered 3-5 times to each nostril (6-10 times total) over a period of 3.5 min. Allopregnanolone (6 mg/mL in 24% Captisol® in 0.9% saline) was administered intramuscularly at a total dose of 12 mg/kg. Time course of plasma levels of allopregnanolone following intranasal allopregnanolone (10 mg/kg) and intramuscular allopregnanolone (12 mg/kg) was monitored. At various times after administration, trunk blood was collected in chilled heparinized tubes. In some cases, blood was collected by retro-orbital puncture. Plasma was separated and assayed for allopregnanolone as described in Zolkowska D. et al., Epilepsia 2018 October; 59 Suppl 2:220-227.
At various times after intranasal administration, trunk blood samples were collected into chilled tubes. Brains were removed, separated into 3 sections (olfactory bulb, forebrain with midbrain, cerebellum with attached pons and medulla) and fast-frozen on dry ice. Blood was centrifuged at 1500 RCF for 10 min to separate the plasma. Brain and plasma samples were stored at −80° C. until processing. Plasma and brain samples were analyzed for allopregnanolone as described in Zolkowska et al (2018). The lower limit of quantification in plasma is 2.5 ng/ml.

[4] = human; cited from earlier work
PTZ-induced seizures = assay: maximal PTZ seizure test; type: in vivo, mice
Experimental: Solutions of allopregnanolone (5α,3α-P) (15 mg/ml) were prepared in 40% sulfobutylether-β-cyclodextrin sodium salt in 0.9% saline. Seizures were induced in mice with pentylenetetrazol (PTZ; […] IP). 5α,3α-P solution (6 and 10 mg/kg) or vehicle was administered intranasally 5, 10 and 15 min prior to administration of the PTZ. […] The times to onset of myoclonic body twitches and clonic and tonic seizures were recorded. 5α,3α-P was considered to have antiseizure activity if it delayed the onset of seizure signs in comparison with the time of their occurrence in vehicle-treated animals.
The times to occurrence of the 3 seizure signs as in the timed intravenous PTZ seizure test were recorded. Allopregnanolone (10 mg/kg) or vehicle was administered intranasally 10 min prior to the PTZ injection.

[5] = cited from earlier work
[6] = even when solubilized with sulfobutyl ether β-cyclodextrin, sodium salt; cited from earlier work
motor function of mice = assay: horizontal screen test (motor impairment); type: in vivo; details: for motor function in the horizontal screen test, in words: intranasal, doses with comparable antiseizure activity; for animals that fell from the grid: intranasal 1 mg/kg
Experimental: At various times after intranasal administration, mice were placed on a horizontally oriented grid (consisting of parallel 1.5-mm diameter rods situated 1 cm apart) for 2-3 s and the grid was inverted and held approximately 30-40 cm above a padded surface for a maximum of 60 s. If the animal fell from the grid, the latency from the time of inversion to the time of fall was recorded.

[7] = brain region pharmacokinetics after intranasal dosing
[8] = intranasal; cited from earlier work
[9] = intranasal 16 mg/kg, 10 min after dosing
[10] = mouse, plasma, inhaled or intranasal, 10 mg/kg
[11] = intranasal 10 mg/kg, 10 min before PTZ 80 mg/kg IP
[12] = mouse, olfactory bulb, inhaled or intranasal, 10 mg/kg

CC(=O)[C@H]1CC[C@H]2[C@@H]3CC[C@H]4C[C@H](O)CC[C@]4(C)[C@H]3CC[C@]12C [allopregnanolone, 3α-hydroxy-5α-pregnan-20-one]
ratio of threshold, drug to vehicle: tonic extension [1]: 1.5
effect on seizure threshold parameters ([2]; intranasal 16 mg/kg, 10 minutes): large and statistically significant increase
effect on seizure threshold parameters ([2]; intranasal 16 mg/kg, 1 hour): diminishes
effect on seizure threshold parameters ([2]; intranasal 16 mg/kg, 8 hours): absent; also recorded: no substantial elevation
change in tonic extension threshold versus vehicle ([2]; intranasal 16 mg/kg, 10 min): statistically significant increase
ratio of mean threshold values, drug to vehicle: clonus [2, 9]: 1.4
ratio of mean threshold values, drug to vehicle: myoclonic twitch [2, 9]: 1.3
ratio of mean threshold values, drug to vehicle: tonic extension [2, 9]: 2.7
ratio of mean thresholds, drug to vehicle: tonic extension ([2]; intranasal 16 mg/kg, 15 min (maximum elevation)): 5.3
ratio of mean thresholds, drug to vehicle: tonic extension ([2]; intranasal 16 mg/kg, 60 min): 1.3
ratio of mean thresholds, drug to vehicle: tonic extension ([2]; intranasal 16 mg/kg, 360 min): 1.1
animals exhibiting loss of righting reflex (righting reflex of mice; intramuscular 16 mg/kg): 9 of 10
loss of righting reflex (sedation), in words (righting reflex of mice; intramuscular 16 mg/kg): substantial loss of righting reflex; also recorded: profound sedation
loss of righting reflex (sedation), in words (righting reflex of mice; intramuscular 16 mg/kg, listed as Allopregnanolone): loss of righting reflex in a high proportion of mice
loss of righting reflex (sedation/general anesthesia), in words (righting reflex of mice; intranasal 16 mg/kg): not associated with substantial sedation/general anesthesia; also recorded: only minimal loss of righting reflex
animals exhibiting loss of righting reflex (righting reflex of mice; intranasal 16 mg/kg, 60 min observation): 2 of 25
loss of righting reflex (sedation/general anesthesia), in words (righting reflex of mice; intranasal 16 mg/kg, listed as Allopregnanolone): loss of righting reflex in only a small proportion of animal
time therapeutic levels are maintained ([3]; intramuscular): about 2 hours
time by which plasma levels taper off ([3]; intramuscular 12 mg/kg): about 4 hours
time therapeutically meaningful blood levels are maintained ([3]; intranasal): up to 8 hours
time plasma levels are sustained ([3]; intranasal 10 mg/kg): up to 8 hours
true Cmax (time) ([3]; intranasal 10 mg/kg, likely value): < 5 min
Cmax [3, 10]: 3500 ng/mL
Tmax [3, 10]: 1 min
half-life ([3]; mouse, plasma, inhaled or intranasal, 10 mg/kg, plasma initial phase t1/2, intranasal 10 mg/kg, first 15 min): 4.9 min
half-life ([3]; mouse, plasma, inhaled or intranasal, 10 mg/kg, plasma t1/2 (overall curve), intranasal 10 mg/kg): 49 min
t1/2 [4]: 35 min
delay in seizure signs (PTZ-induced seizures; Example 1, administered 15 min before PTZ, compared with 5 min): less active
effect on time to onset of seizure signs (PTZ-induced seizures; Example 1, intranasal 6 mg/kg): delayed the time to onset of all seizure signs
protection from tonic hind limb extension and mortality (PTZ-induced seizures; Example 1, intranasal 10 mg/kg): some animals were protected
ratio of latencies, drug to vehicle: clonus (PTZ-induced seizures; [11]): 1.5
ratio of latencies, drug to vehicle: myoclonic twitch (PTZ-induced seizures; [11]): 1.3
ratio of latencies, drug to vehicle: tonic extension (PTZ-induced seizures; [11]): 4.4
animals that failed to exhibit tonic extension (PTZ-induced seizures; intranasal 10 mg/kg, of the 14 animals tested): 5
dose adjusted Cmax ([5]; intramuscular, prior study): 2150 ng/mL
Tmax ([5]; intramuscular): 60 min
plasma concentration half-time (t1/2) ([5]; mice): 16 min
oral bioavailability [6]: not orally bioavailable
animals that did not fall from the grid (motor function of mice; intranasal 16 mg/kg): 5 of 8
area under mean holding time versus time curve, compared with untreated (naive) animals (motor function of mice; intranasal 16 mg/kg): not significantly different
motor function in the horizontal screen test, in words (motor function of mice): fails to cause substantial sedation or motor impairment
olfactory bulb levels compared with plasma levels ([7]; intranasal): substantially higher than the plasma levels
olfactory bulb concentration relative to whole brain ([7]; intranasal 16 mg/kg, mean of 1, 2, 5 and 10 min): 10 fold
Cmax ([7]; mouse, forebrain, cerebellum, inhaled or intranasal, 10 mg/kg): 600 to 700 ng/g
Cmax [7, 12]: 16000 ng/g
Tmax [7, 12]: 1 min

CN1C(=O)CN=C(c2ccccc2)c2cc(Cl)ccc21 [diazepam]
elevation in thresholds to the three seizure endpoints [2]: comparable elevations
animals that fell from the grid (motor function of mice): all
motor function in the horizontal screen test, in words (motor function of mice): dramatically impair motor function

CC1(C)O[C@@H]2C[C@H]3[C@@H]4C[C@H](F)C5=CC(=O)C=C[C@]5(C)[C@H]4[C@@H](O)C[C@]3(C)[C@]2(C(=O)CO)O1 [flunisolide]
systemic availability [8]: substantial

CCC(=O)O[C@]1(C(=O)SCF)[C@H](C)C[C@H]2[C@@H]3C[C@H](F)C4=CC(=O)C=C[C@]4(C)[C@@]3(F)[C@@H](O)C[C@@]21C [fluticasone propionate]
systemic availability [8]: negligible

Cc1ncc2n1-c1ccc(Cl)cc1C(c1ccccc1F)=NC2 [midazolam]
elevation in thresholds to the three seizure endpoints [2]: comparable elevations
animals that fell from the grid (motor function of mice): all
motor function in the horizontal screen test, in words (motor function of mice): dramatically impair motor function
